System: depressed mice (chronic unpredictable stress depression mouse model)
Assay: Butyric acid content in the caecum of depressed mice (GC-MS)
Type: in vivo, C57BL/6J mice
Conditions: 6 weeks intervention (CCFM687 10^9 cfu or fluoxetine 10 mg/kg), GC-MS of cecal content (FIG. 3)
Description: 32 6-week-old male C57BL/6J mice were selected. After one week of adaptation to the environment, the mice were randomly divided into four groups according to body weight: a control group, a model group, a fluoxetine intervention group, and a CCFM687 intervention group, each containing 8 mice.
Chronic unpredictable stress depression mouse model: 1-2 kinds of stimuli were randomly performed every day, and the performance time of stimuli every day was determined randomly to avoid the circadian rhythm. Each method was used for not more than three times, and the stimuli were performed for five weeks. The stimuli include: (1) fasting for 24 h; (2) water deprivation+empty bottle stimulus for 24 h; (3) tail pinching for 3 min; (4) wet padding for 24 h; (5) immobilization for 1-2 h; (6) 45° tilted cage for 24 h; (7) continuous lighting for 24 h; (8) no padding for 24 h; (9) forced swim for 15 min; and (10) separation for 24 h. […]
The mice in Example 2 were euthanized at the sixth weekend, and the content of the cecum of the mice was collected. […] 500 μL of supernatant was taken into a gas phase vial, and the contents of short-chain fatty acids (acetic acid, propionic acid, isobutyric acid, butyric acid and isovaleric acid) were measured by GC-MS. […] The analysis adopted a full scan mode, and the concentration of each short-chain fatty acid (μmol/g) was calculated by an external standard method. […]

In the case of `CNCCC(Oc1ccc(C(F)(F)F)cc1)c1ccccc1` (stereo not shown) [fluoxetine], the “butyric acid content in the caecum / intestine” value is reported as “has no regulating effect on the butyric acid content”.
